{"source": "patent US20200368247A1", "about": "“CENICRIVIROC FOR THE TREATMENT OF FIBROSIS” (Tobira Therapeutics, Inc., priority 2014, published 2020)", "type_in_all_cases": "in vivo, human", "key": {"[1]": {"experiment": "Study 202 post-hoc APRI and FIB-4 fibrosis index scores", "method": "APRI and FIB-4 scores were calculated. Change in score category from baseline (BL) to Weeks 24 and 48 was assessed in patients with non-missing data. Correlations between changes from BL in APRI and FIB-4 scores, and MCP-1 (CCR2 ligand) and sCD14 (inflammatory biomarker) levels were evaluated."}, "[2]": {"experiment": "Study 202 fasting metabolic laboratory parameters", "excerpt": "All abnormalities in total cholesterol, LDL cholesterol, triglycerides, or glucose were Grade 1 or Grade 2.\nMean baseline values and changes from baseline in HbA1c, HOMA-IR, fasting LDL, fasting HDL, fasting total cholesterol, fasting total cholesterol/HDL ratio, and fasting triglycerides are shown in Table 36."}, "[3]": {"experiment": "Study 202 ECG abnormalities", "conditions": "All CVC (N = 115); EFV (N = 28), through Week 48"}, "[4]": {"conditions": "All CVC (N = 115), EFV (N = 28), through Week 48"}}, "data": [{"smiles": "O=C1Nc2ccc(Cl)cc2[C@@](C#CC2CC2)(C(F)(F)F)O1", "note": "[EFV, efavirenz, reference compound]", "values": [{"measurement": "APRI 0.5-1.5, patients", "setting": "[1]; Baseline", "value": 4, "unit": "%"}, {"measurement": "APRI <0.5, patients", "setting": "[1]; Baseline", "value": 96, "unit": "%"}, {"measurement": "FIB-4 <1.45, patients", "setting": "[1]; Baseline", "value": 100, "unit": "%"}, {"measurement": "subjects with decrease in FIB-4 score by one category", "setting": "[1]; EFV arm, Weeks 24 and 48", "value": "no subject"}, {"measurement": "APRI <0.5, patients", "setting": "[1]; Week 24", "value": 100, "unit": "%"}, {"measurement": "APRI decreased 1 category from baseline, patients", "setting": "[1]; Week 24", "value": 5, "unit": "%"}, {"measurement": "FIB-4 <1.45, patients", "setting": "[1]; Week 24", "value": 100, "unit": "%"}, {"measurement": "APRI <0.5, patients", "setting": "[1]; Week 48", "value": 100, "unit": "%"}, {"measurement": "APRI decreased 1 category from baseline, patients", "setting": "[1]; Week 48", "value": 6, "unit": "%"}, {"measurement": "FIB-4 1.45-3.25, patients", "setting": "[1]; Week 48", "value": 6, "unit": "%"}, {"measurement": "FIB-4 <1.45, patients", "setting": "[1]; Week 48", "value": 94, "unit": "%"}, {"measurement": "Any fasting laboratory abnormality, worst Grade 1", "setting": "[2]; [4]", "value": "6 (21%) n (%)"}, {"measurement": "Any fasting laboratory abnormality, worst Grade 2", "setting": "[2]; [4]", "value": "3 (11%) n (%)"}, {"measurement": "Any fasting laboratory abnormality, worst Grade 3", "setting": "[2]; [4]", "value": "0 n (%)"}, {"measurement": "Any fasting laboratory abnormality, worst Grade 4", "setting": "[2]; [4]", "value": "0 n (%)"}, {"measurement": "Any graded (Grade 1-4) fasting laboratory abnormality", "setting": "[2]; [4]", "value": "9 (32%) n (%)"}, {"measurement": "Fasting LDL cholesterol abnormality, Grade 1", "setting": "[2]; [4]", "value": "3 (11%) n (%)"}, {"measurement": "Fasting LDL cholesterol abnormality, Grade 2", "setting": "[2]; [4]", "value": "3 (11%) n (%)"}, {"measurement": "Fasting LDL cholesterol abnormality, Grade 3", "setting": "[2]; [4]", "value": "0 n (%)"}, {"measurement": "Fasting LDL cholesterol abnormality, Grade 4", "setting": "[2]; [4]", "value": "0 n (%)"}, {"measurement": "Fasting LDL cholesterol abnormality, any grade", "setting": "[2]; [4]", "value": "6 (21%) n (%)"}, {"measurement": "Fasting glucose (serum, high) abnormality, Grade 1", "setting": "[2]; [4]", "value": "2 (7%) n (%)"}, {"measurement": "Fasting glucose (serum, high) abnormality, Grade 2", "setting": "[2]; [4]", "value": "0 n (%)"}, {"measurement": "Fasting glucose (serum, high) abnormality, Grade 3", "setting": "[2]; [4]", "value": "0 n (%)"}, {"measurement": "Fasting glucose (serum, high) abnormality, Grade 4", "setting": "[2]; [4]", "value": "0 n (%)"}, {"measurement": "Fasting glucose (serum, high) abnormality, any grade", "setting": "[2]; [4]", "value": "2 (7%) n (%)"}, {"measurement": "Fasting total cholesterol abnormality, Grade 1", "setting": "[2]; [4]", "value": "6 (21%) n (%)"}, {"measurement": "Fasting total cholesterol abnormality, Grade 2", "setting": "[2]; [4]", "value": "3 (11%) n (%)"}, {"measurement": "Fasting total cholesterol abnormality, Grade 3", "setting": "[2]; [4]", "value": "0 n (%)"}, {"measurement": "Fasting total cholesterol abnormality, Grade 4", "setting": "[2]; [4]", "value": "0 n (%)"}, {"measurement": "Fasting total cholesterol abnormality, any grade", "setting": "[2]; [4]", "value": "9 (32%) n (%)"}, {"measurement": "Fasting triglycerides abnormality, Grade 1", "setting": "[2]; [4]", "value": "0 n (%)"}, {"measurement": "Fasting triglycerides abnormality, Grade 2", "setting": "[2]; [4]", "value": "0 n (%)"}, {"measurement": "Fasting triglycerides abnormality, Grade 3", "setting": "[2]; [4]", "value": "0 n (%)"}, {"measurement": "Fasting triglycerides abnormality, Grade 4", "setting": "[2]; [4]", "value": "0 n (%)"}, {"measurement": "Fasting triglycerides abnormality, any grade", "setting": "[2]; [4]", "value": "0 n (%)"}, {"measurement": "Fasting HDL, mean change from baseline", "setting": "[2]; All CVC, EFV, Week 4", "value": 5.90, "unit": "mg/dL"}, {"measurement": "Fasting total cholesterol, mean change from baseline", "setting": "[2]; All CVC, EFV, Week 4", "value": 19, "unit": "mg/dL"}, {"measurement": "Fasting total cholesterol/HDL ratio, mean change from baseline", "setting": "[2]; All CVC, EFV, Week 4", "value": "−0.07"}, {"measurement": "Fasting triglycerides, mean change from baseline", "setting": "[2]; All CVC, EFV, Week 4", "value": 23, "unit": "mg/dL"}, {"measurement": "HOMA-IR, mean change from baseline", "setting": "[2]; All CVC, EFV, Week 4", "value": 0.30}, {"measurement": "HbA1c, mean change from baseline", "setting": "[2]; All CVC, EFV, Week 4", "value": "−0.01", "unit": "% Hb"}, {"measurement": "Fasting total cholesterol, mean change from baseline", "setting": "[2]; All CVC, EFV, Week 12", "value": 18, "unit": "mg/dL"}, {"measurement": "Fasting total cholesterol/HDL ratio, mean change from baseline", "setting": "[2]; All CVC, EFV, Week 12", "value": "−0.41"}, {"measurement": "Fasting triglycerides, mean change from baseline", "setting": "[2]; All CVC, EFV, Week 12", "value": 3, "unit": "mg/dL"}, {"measurement": "HOMA-IR, mean change from baseline", "setting": "[2]; All CVC, EFV, Week 12", "value": 0.06}, {"measurement": "HbA1c, mean change from baseline", "setting": "[2]; All CVC, EFV, Week 12", "value": "−0.07", "unit": "% Hb"}, {"measurement": "Fasting total cholesterol, mean change from baseline", "setting": "[2]; All CVC, EFV, Week 24", "value": 24, "unit": "mg/dL"}, {"measurement": "Fasting total cholesterol/HDL ratio, mean change from baseline", "setting": "[2]; All CVC, EFV, Week 24", "value": "−0.47"}, {"measurement": "Fasting triglycerides, mean change from baseline", "setting": "[2]; All CVC, EFV, Week 24", "value": 10, "unit": "mg/dL"}, {"measurement": "HbA1c, mean change from baseline", "setting": "[2]; All CVC, EFV, Week 24", "value": "−0.01", "unit": "% Hb"}, {"measurement": "Fasting total cholesterol, mean change from baseline", "setting": "[2]; All CVC, EFV, Week 48", "value": 26, "unit": "mg/dL"}, {"measurement": "HOMA-IR, mean change from baseline", "setting": "[2]; All CVC, EFV, Week 48", "value": "−0.12"}, {"measurement": "HbA1c, mean change from baseline", "setting": "[2]; All CVC, EFV, Week 48", "value": 0.08, "unit": "% Hb"}, {"measurement": "change in LDL cholesterol and HDL cholesterol", "setting": "[2]; EFV, through Week 48", "value": "increases"}, {"measurement": "HR Abnormally high (120 bpm ≤ abnormally high)", "setting": "[3]", "value": "0 n (%)"}, {"measurement": "HR Abnormally low (≤ 50 bpm)", "setting": "[3]", "value": "0 n (%)"}, {"measurement": "PR Abnormally high (210 ms ≤ abnormally high)", "setting": "[3]", "value": "1 (4%) n (%)"}, {"measurement": "QRS Abnormally high (120 ms ≤ abnormally high)", "setting": "[3]", "value": "0 n (%)"}, {"measurement": "QRS Abnormally low (≤ 50 ms)", "setting": "[3]", "value": "0 n (%)"}, {"measurement": "QTcB interval Borderline (450 ms ≤ borderline ≤ 480 ms)", "setting": "[3]", "value": "3 (11%) n (%)"}, {"measurement": "QTcB interval Increase by >30-60 ms", "setting": "[3]", "value": "4 (14%) n (%)"}, {"measurement": "QTcB interval Increase by >60 ms", "setting": "[3]", "value": "0 n (%)"}, {"measurement": "QTcB interval Pathologically prolonged (> 500 ms)", "setting": "[3]", "value": "0 n (%)"}, {"measurement": "QTcB interval Prolonged (480 ms < prolonged ≤ 500 ms)", "setting": "[3]", "value": "0 n (%)"}, {"measurement": "QTcF interval Borderline (450 ms ≤ borderline ≤ 480 ms)", "setting": "[3]", "value": "0 n (%)"}, {"measurement": "QTcF interval Increase by >30-60 ms", "setting": "[3]", "value": "4 (14%) n (%)"}, {"measurement": "QTcF interval Increase by >60 ms", "setting": "[3]", "value": "0 n (%)"}, {"measurement": "QTcF interval Pathologically prolonged (> 500 ms)", "setting": "[3]", "value": "0 n (%)"}, {"measurement": "QTcF interval Prolonged (480 ms < prolonged ≤ 500 ms)", "setting": "[3]", "value": "0 n (%)"}]}]}
